According to patent US10167299B2, “1-(3-aminopropyl) substituted cyclic amine compounds, preparation method therefor, and pharmaceutical compositions and uses thereof” (SHANGHAI INSTITUTE OF MATERIA MEDICA, CHINESE ACADEMY OF …, priority 2013, dated 2019):
Converted amounts (≈) assume the structure as drawn. Like-named read-outs stand apart in the source and are kept apart here.

Experiments:
[1] = Cytotoxicity (CC50) in TZM-bl cells; assay type: cell-based; conditions: human
HIV-1SF162 virus strain = experiment: Inhibition activity on TZM-bl cells infected with HIV-1SF162; conditions: for EC50: Human immunodeficiency virus 1, TZM-bl; for therapeutic index (TI): TZM-bl cells infected with HIV-1SF162
CCR5 = CCR5 (Homo sapiens (Human), UniProt P51681); experiment: Calcium flux inhibition experiment; assay type: cell-based; conditions: for IC50: HEK293/CCR5-Gα16 cell line, calcium flux, read-out: CCR5 IC50; for calcium influx inhibition effect in words, versus positive control compounds: conclusion from Table 1
Text: Experiment apparatus: FlexStation II
Experiment materials: HEK293/CCR5-Gα16 cell line, Fluo-4calcium dye (fluorescent-4 calcium ion dye) and FlexStation instrument.
Experiment theory: Activation of the receptor can cause the activation of Gα16 protein, thereby activating phospholipase C (PLC) to generate IP3 and DAG by establishing CCR5 and Ga16 co-transfected cell line. IP3 can bind to IP3 receptors on the endoplasmic reticulum and mitochondria in a cell, which can cause the release of intracellular calcium. Thus, determination of changes in intracellular calcium can be used as a method to detect CCR5 activation state. Fluo-4/AM is a fluorescent probe indicator for calcium used to measure calcium ion. As a non-polar lipid-soluble compound, after it enters into cells, AM group is dissociated to release Fluo-4 under the effect of cell lipolysis enzyme. Fluo-4 is a polar molecule and not easy to go through the lipid bilayer membrane, therefore it can stay within the cells for a long time. Ultimately, the level of activated Ga protein can be reflected by measuring the excited fluorescence intensity. If the screened compound can activate CCR5, it can greatly increase the calcium flux reaction; on the contrary, if the screened compound can antagonize CCR5, it can greatly reduce calcium flux reaction.
1. HEK293 cells which can stably express CCR5 were inoculated in a 96-well plate and incubated overnight.
2. The medium in each well into which cells were innoculated was removed and 40 μl/well of freshly prepared dye was added. The plate was placed in a 37° C. incubator and incubated for 40 minutes at constant temperature.
3. The medicament to be determined was diluted with calcium buffer to eight concentration gradients, which is 1×10^−4 M, 1×10^−5 M, 1×10^−6 M, 1×10^−7 M, 1×10^−8 M, 1×10^−9 M, 1×10^−10 M, and 1×10^−11 M, respectively, and homogeneously mixed.
4. The dye was removed. Freshly prepared calcium buffer was used to wash for one time, 50 μl of calcium buffer was added.
5. FlexStation II was used for detection. 25 μl of calcium buffer containing the medicament to be determined was added automatically from the 15th second.

[2] = TZM-bl cells (Table 3), read-out: CC50

Sequence of CCR5 (P51681 whole entry): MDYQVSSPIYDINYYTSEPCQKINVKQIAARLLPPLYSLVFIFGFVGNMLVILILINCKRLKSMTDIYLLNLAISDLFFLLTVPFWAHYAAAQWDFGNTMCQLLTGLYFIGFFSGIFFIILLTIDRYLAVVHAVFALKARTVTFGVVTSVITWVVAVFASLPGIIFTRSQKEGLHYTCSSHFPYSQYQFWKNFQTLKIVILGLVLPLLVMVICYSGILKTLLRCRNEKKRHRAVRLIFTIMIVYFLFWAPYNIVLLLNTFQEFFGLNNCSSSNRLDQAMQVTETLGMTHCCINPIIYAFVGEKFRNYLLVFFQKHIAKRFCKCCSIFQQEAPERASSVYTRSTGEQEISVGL

Row | SMILES | CC50 at 3 days [1] | EC50 (HIV-1SF162 virus strain) | therapeutic index (TI) (HIV-1SF162 virus strain) | CC50 at 3 days [1, 2] | IC50 (CCR5) | CC50 [1] | calcium influx inhibition effect in words, versus positive control compounds (CCR5) | CC50 [1, 2]
1 | Cc1nnc(C(C)C)n1C1CC2CCC(C1)N2CC[C@H](NC(=O)C1CCC(F)(F)CC1)c1csc2ccccc12 (stereo partly drawn) [Compound 27, 4,4-difluoro-N-[(1S)-3-[exo-3-(3-isopropyl-5-methyl-4H-1,2,4-triazol-4-yl)-8-azabicyclo[3.2.1]octane-8-yl]-1-(benzothiophen-3-yl)propyl]cyclohexane-1-carboxamide] | 96.1 µg/mL (≈ 169 µM) | 0.511 µg/mL (≈ 0.897 µM) | 188.14 |  |  |  |  | 
2 | CC(=O)N[C@@H](CCN1C2CCC1CC(n1c(C)nnc1C(C)C)C2)c1csc2ccccc12 (stereo partly drawn) [Compound 28, N-[(1S)-3-[exo-3-(3-isopropyl-5-methyl-4H-1,2,4-triazol-4-yl)-8-azabicyclo[3.2.1]octane-8-yl]-1-(benzothiophen-3-yl)propyl]acetamide] |  | > 40 µg/mL |  | > 200 µg/mL |  |  |  | 
3 | Cc1ccc([C@H](CCN2C3CCC2CC(n2c(C)nnc2C(C)C)C3)NC(=O)C2CCCCC2)s1 (stereo partly drawn) [Compound 30, N-[(1S)-3-[exo-3-(3-isopropyl-5-methyl-4H-1,2,4-triazol-4-yl)-8-azabicyclo[3.2.1]octane-8-yl]-1-(5-methylthiophen-2-yl)propyl]cyclohexane-1-carboxamide] |  | 0.06 µg/mL (≈ 0.121 µM) | >2150.54 |  | 24 nM | > 200 µg/mL |  | 
4 | Cc1ccc([C@H](CCN2C3CCC2CC(n2c(C)nnc2C(C)C)C3)NC(=O)C2CCCC2)s1 (stereo partly drawn) [Compound 31, N-[(1S)-3-[exo-3-(3-isopropyl-5-methyl-4H-1,2,4-triazol-4-yl)-8-azabicyclo[3.2.1]octane-8-yl]-1-(5-methylthiophen-2-yl)propyl]cyclopentane-1-carboxamide] |  | 0.033 µg/mL (≈ 0.0682 µM) | >5714.29 |  | 9.76 nM | > 200 µg/mL | comparable to the positive control compounds | 
5 | Cc1ccc([C@H](CCN2C3CCC2CC(n2c(C)nnc2C(C)C)C3)NC(=O)c2ccccc2)s1 (stereo partly drawn) [Compound 32, N-[(1S)-3-[exo-3-(3-isopropyl-5-methyl-4H-1,2,4-triazol-4-yl)-8-azabicyclo[3.2.1]octane-8-yl]-1-(5-methylthiophen-2-yl)propyl]benzamide] |  | > 40 µg/mL |  |  | 8.35 nM | > 200 µg/mL | comparable to the positive control compounds | 
6 | Cc1ccc([C@H](CCN2C3CCC2CC(n2c(C)nnc2C(C)C)C3)NC(=O)Cc2ccc(F)cc2)s1 (stereo partly drawn) [Compound 33, 4-fluoro-N-[(1S)-3-[exo-3-(3-isopropyl-5-methyl-4H-1,2,4-triazol-4-yl)-8-azabicyclo[3.2.1]octane-8-yl]-1-(5-methylthiophen-2-yl)propyl]phenylacetamide] |  | 0.147 µg/mL (≈ 0.281 µM) | >328.95 |  | 25 nM | > 200 µg/mL |  | 
7 | Cc1nnc(C(C)C)n1C1CC2CCC(C1)N2CC[C@H](NC(=O)C1CCCCC1)c1ccc(F)nc1 (stereo partly shown) [Compound 35] |  | > 40 µg/mL |  |  | 270 nM | > 200 µg/mL |  | 
8 | Cc1nnc(C(C)C)n1C1CC2CCC(C1)N2CC[C@H](NC(=O)C1CCCC1)c1ccc(F)nc1 (stereo partly shown) [Compound 36] |  | > 40 µg/mL |  |  | 31.8 nM |  |  | > 200 µg/mL
9 | Cc1nnc(C(C)C)n1C1CC2CCC(C1)N2CC[C@H](NC(=O)C1CCC(F)(F)CC1)c1ccc(F)s1 (stereo partly drawn) [Compound 37, 4,4-difluoro-N-[(1S)-3-[exo-3-(3-isopropyl-5-methyl-4H-1,2,4-triazol-4-yl)-8-azabicyclo[3.2.1]octane-8-yl]-1-(5-fluorothiophen-2-yl)propyl]cyclohexane-1-carboxamide] | > 200 µg/mL | 0.647 µg/mL (≈ 1.2 µM) | >309.12 |  |  |  |  | 
10 | Cc1nnc(C(C)C)n1C1CC2CCC(C1)N2CC[C@H](NC(=O)C1CCCCC1)c1ccc(F)s1 (stereo partly drawn) [Compound 38, N-[(1S)-3-[exo-3-(3-isopropyl-5-methyl-4H-1,2,4-triazol-4-yl)-8-azabicyclo[3.2.1]octane-8-yl]-1-(5-fluorothiophen-2-yl)propyl]cyclohexane-1-carboxamide] |  | 2.61 µg/mL (≈ 5.2 µM) | >73.64 |  | 9.33 nM | > 200 µg/mL | comparable to the positive control compounds | 
11 | Cc1nnc(C(C)C)n1C1CC2CCC(C1)N2CC[C@H](NC(=O)C1CCCC1)c1ccc(F)s1 (stereo partly drawn) [Compound 39, N-[(1S)-3-[exo-3-(3-isopropyl-5-methyl-4H-1,2,4-triazol-4-yl)-8-azabicyclo[3.2.1]octane-8-yl]-1-(5-fluorothiophen-2-yl)propyl]cyclopentane-1-carboxamide] |  | 1.02 µg/mL (≈ 2.09 µM) | >196.08 |  | 1.41 nM |  | better than the positive control compounds | > 200 µg/mL
12 | CC(=O)N[C@@H](CCN1C2CCC1CC(n1c(C)nc3c1CCN(C(C)=O)C3)C2)c1nccs1 (stereo partly drawn) [Compound 118, N-{(1S)-3-[(3-endo)-3-(5-acetyl-2-methyl-4,5,6,7-tetrahydro-1H-imidazo[4,5-c]pyridin-1-yl)-8-azabicyclo[3.2.1]octane-8-yl]-1-(thiazol-2-yl)-propyl}acetamide] |  | 0.669 µg/mL (≈ 1.42 µM) | >168.03 |  | 16.9 nM |  |  | > 200 µg/mL
13 | COC(=O)N1CCc2c(nc(C)n2C2CC3CCC(C2)N3CC[C@H](NC(C)=O)c2nccs2)C1 (stereo partly drawn) [Compound 119, Methyl 1-{(endo)-8-[(S)-3-acetamido-3-(thiazol-2-yl)-propyl]-8-azabicyclo[3.2.1]octan-3-yl}-2-methyl-1,4,6,7-tetrahydro-5H-imidazo[4,5-c]pyridine-5-carboxylate] |  | 0.738 µg/mL (≈ 1.52 µM) | >270.84 |  | 4.77 nM | > 200 µg/mL | better than the positive control compounds | 
14 | CCC(=O)N1CCc2c(nc(C)n2C2CC3CCC(C2)N3CC[C@H](NC(C)=O)c2nccs2)C1 (stereo partly drawn) [Compound 120, N-{(1S)-3-[(3-endo)-3-(5-propionyl-2-methyl-4,5,6,7-tetrahydro-1H-imidazo[4,5-c]pyridin-1-yl)-8-azabicyclo[3.2.1]octane-8-yl]-1-(thiazol-2-yl)-propyl}acetamide] |  | 0.831 µg/mL (≈ 1.71 µM) | >240.76 |  | 27.7 nM | > 200 µg/mL |  | 
15 | CC(=O)N[C@@H](CCN1C2CCC1CC(n1c(C)nc3c1CCN(C(=O)C(C)C)C3)C2)c1nccs1 (stereo partly drawn) [Compound 121, N-{(1S)-3-[(3-endo)-3-(5-isobutyryl-2-methyl-4,5,6,7-tetrahydro-1H-imidazo[4,5-c]pyridin-1-yl)-8-azabicyclo[3.2.1]octane-8-yl]-1-(thiazol-2-yl)-propyl}acetamide] |  | 0.328 µg/mL (≈ 0.658 µM) | >386.37 |  | 32.3 nM | > 200 µg/mL |  | 
16 | CC(=O)N[C@@H](CCN1C2CCC1CC(n1c(C)nc3c1CCN(C(=O)C1CC1)C3)C2)c1nccs1 (stereo partly drawn) [Compound 122, N-{(1S)-3-[(3-endo)-3-(5-cyclopropionyl-2-methyl-4,5,6,7-tetrahydro-1H-imidazo[4,5-c]pyridin-1-yl)-8-azabicyclo[3.2.1]octane-8-yl]-1-(thiazol-2-yl)-propyl}acetamide] |  | 0.69 µg/mL (≈ 1.39 µM) | >290.06 |  | 24.5 nM | > 200 µg/mL |  | 
17 | CC(=O)N[C@@H](CCN1C2CCC1CC(n1c(C)nc3c1CCN(C(C)=O)C3)C2)c1ccc(Cl)s1 (stereo partly drawn) [Compound 125, N-{(1S)-3-[(3-endo)-3-(5-acetyl-2-methyl-4,5,6,7-tetrahydro-1H-imidazo[4,5-c]pyridin-1-yl)-8-azabicyclo[3.2.1]octane-8-yl]-1-(5-chlorothiophen-2-yl)-propyl}acetamide] |  | 0.286 µg/mL (≈ 0.567 µM) | >699.27 |  | 12.2 nM | > 200 µg/mL |  | 
18 | COC(=O)N1CCc2c(nc(C)n2C2CC3CCC(C2)N3CC[C@H](NC(C)=O)c2ccc(Cl)s2)C1 (stereo partly drawn) [Compound 126, Methyl 1-{(endo)-8-[(S)-3-acetamido-3-(5-chlorothiophen-2-yl)-propyl]-8-azabicyclo[3.2.1]octan-3-yl}-2-methyl-1,4,6,7-tetrahydro-5H-imidazo[4,5-c]pyridine-5-carboxylate] |  | 0.091 µg/mL (≈ 0.175 µM) | >2207.68 |  | 22 nM | > 200 µg/mL |  | 
